The subject of data set [1] is retinal neovascularization. Kind of data set: Rat pup model of retinopathy of prematurity. It counts as in vivo. As for the experimental part:
Anecortave acetate was tested for its angiostatic efficacy in a rat pup model of retinopathy of prematurity (Penn, at al., Investigative Ophthalmology & Visual Science, “The Effect of an Angiostatic Steroid on Neovascularization in a Rat Model of Retinopathy of Prematurity,” Vol. 42(1):283-290, January 2001). Newborn rat pups were placed in an atmosphere of varying oxygen content. The rats received a single intravitreal injection of vehicle or anecortave acetate (500 μg) upon return to room air (day 14) or 2 days later (day 16). There was significant retinal neovascularization in the rats that receive vehicle injections.

Another data set concerns IOP. Kind of data set: Dexamethasone acetate induced IOP elevation in rabbits. Type of data set: in vivo, rabbit. As to conditions: for IOP: rabbits with weekly subTenon's dexamethasone acetate 1 mg/kg, versus vehicle. As for the experimental part:
Three groups of rabbits received weekly subTenon's injections of dexamethasone acetate (1 mg/kg) for 4 weeks. After two weeks, the IOPs of all three groups measured approximately 5 mm Hg. The rabbits were then treated with vehicle, 0.1% anecortave acetate, a 1% anecortave acetate by topical ocular dosing three times a day for the remaining 2 weeks. The IOP continued to increase in the vehicle treated group.

Turning to `CC(=O)OCC(=O)[C@@]1(O)CC[C@H]2[C@@H]3CCC4=CC(=O)CC[C@]4(C)C3=CC[C@@]21C` [anecortave acetate, 4,9(11)-pregnadien-17α,21-diol-3,20dione-21-acetate], the “inhibition of retinal neovascularization” value turned out to be 50% in data set [1] (single intravitreal injection 500 μg 2 days after return to room air (day 16)) and 66% in data set [1] (single intravitreal injection 500 μg upon return to room air (day 14)). In addition, the IOP result in the data set with IOP (0.1% anecortave acetate topical ocular three times a day for 2 weeks) and with IOP (1% anecortave acetate topical ocular three times a day for 2 weeks) was “significantly lowered” in each case.
Take `CC(=O)OCC(=O)[C@@]1(O)[C@H](C)C[C@H]2[C@@H]3CCC4=CC(=O)C=C[C@]4(C)[C@@]3(F)[C@@H](O)C[C@@]21C` [dexamethasone acetate]: the “IOP after two weeks of dexamethasone acetate” value with IOP (rabbits, weekly subTenon's injections 1 mg/kg, all three groups, before anecortave acetate or vehicle dosing) is reported as “approximately 5 mm Hg”.

(Values after patent US20040171598A1, “Use of steroids to treat persons suffering from ocular disorders” (priority 2003, published 2004).)
